Measured values from patent publication US7074824B2, “Pharmaceutical compositions containing beta-lapachone, or derivatives or analogs thereof, and methods of using same” (Arqule, Inc., priority 2001, dated 2006).
Converted amounts (≈) assume the structure as drawn.

Assay: Solubility in water and in 40% (w/v) HPBCD solution by UV absorbance
Type: physicochemical
Protocol: To determine solubilities, test compounds were first dissolved in ethanol to prepare standard solutions with concentrations in the range 2.5–10 mg/ml, then were diluted with to 10 μg/ml with water. UV scans were obtained of the 10 μg/ml standard solutions, and the wavelength of maximum absorbance and the absorbance at the maximum absorbance wavelength were determined. For each test compound 50 μl aliquots of water and of 40% HPBCD were added to individual Eppendorf tubes containing approximately 1 mg of compound each. The tubes were heated in a 30° C. waterbath, vortexed, then centrifuged at 15,000 rpm for 5 min. This step was repeated, then the tubes were cooled to room temperature for 1 hour, then were centrifuged again. The supernatant from each tube was diluted with water into the appropriate absorbance range, and the UV absorbance was measured at the compound's absorbance maximum wavelength. The concentrations of these saturated solutions were then calculated by ratio to the 10 μg/ml ethanolic standard solutions.

| SMILES | Solubility Enhancement | Solubility in HPBCD Solution [µg/mL] | Solubility in Water [µg/mL] |
| --- | --- | --- | --- |
| CC1(C)C=CC2=C(O1)c1ccccc1C(=O)C2=O [3,4-dehydro-βL] | 240 −Fold | 5800 (≈ 24.1 mM) | 24 (≈ 0.0999 mM) |
| CC(C)=CCC1CC2=C(OC1(C)C)c1ccccc1C(=O)C2=O (stereo not drawn) [3-(3-methyl-2-butenyl)-βL] | 61 −Fold | 4100 (≈ 13.2 mM) | 67 (≈ 0.216 mM) |
| CC1(C)OC2=C(CC1Br)C(=O)C(=O)c1ccccc12 (stereo not drawn) [Compound 3-Bromo-βL, 3-Bromo-βL] | 191 −Fold | 6900 (≈ 21.5 mM) | 36 (≈ 0.112 mM) |

Next, values leading:

| Solubility Enhancement | Solubility in HPBCD Solution [µg/mL] | Solubility in Water [µg/mL] | SMILES |
| --- | --- | --- | --- |
| 10.6 −Fold | 14600 (≈ 56.5 mM) | 1381 (≈ 5.35 mM) | CC1(C)OC2=C(CC1O)C(=O)C(=O)c1ccccc12 (stereo not drawn) [Compound 3-Hydroxy-βL, 3-Hydroxy-βL] |
| 8.7 −Fold | 4400 (≈ 17.2 mM) | 503 (≈ 1.96 mM) | CC1(C)CC(=O)C2=C(O1)c1ccccc1C(=O)C2=O [Compound 4-keto-βL, 4-keto-βL] |
| 36 −Fold | 17000 (≈ 70.2 mM) | 476 (≈ 1.96 mM) | CC1OC2=C(C(=O)C(=O)c3ccccc32)C1(C)C (stereo not drawn) [Dunnione] |
